Source: publication PMC7156724, “Potent BRD4 inhibitor suppresses cancer cell-macrophage interaction” (Nature Communications, 2020)
Values joined by “and” are separate entries in the source; they are usually repeats but may differ in a detail not shown here. Equal values may be shown once. Read-outs that look alike come from different tables or passages of the source.

Key:
[1] = In vivo pharmacokinetics study, rat; design: species or system SD rat
Experimental: (§1) 4–6 weeks old female BALB/c nude mice were used for most experiments, with the exception of 6–8 weeks old female C57BL/6 mice were used for B16F10 experiments, and 6–8 weeks old male BALB/c nude mice and SD rats were used for pharmacokinetic experiments. All animals were purchased from Shanghai SIPPR-Bk Lab Animal Co., Ltd. All animals were housed under a regimen of 12 h light/12 h dark cycles and specific pathogen-free conditions. 5×10^6 NCI-H526, ES-2, MDA-MB231, A2780, A375, B16F10, and TMD-8 cells (0.1 ml) were injected subcutaneously into female nude mice. The melanoma patient-derived xenograft model was derived from a human melanoma sample (BRAF, NARS and NF1 wild type, and p53 mutant) removed from a patient in Xiangya Hospital. Surgically removed tumor fragments were implanted subcutaneously into female NSG mice. When the tumors grew to ~1000 mm^3, they were harvested and cryopreserved or immediately re-implanted for expansion or experiments. Mouse body weight and tumor sizes were measured every 3 days. Once the tumors grew to 150–200 mm^3, mice were treated with the compounds as described in the Figures. 1 × 10^6 A2780 cells (1 ml) were injected into the abdominal cavity of nude mice. Ascitic volume and tumor weight were measured by an electronic balance. All the procedures were evaluated and approved by the Institutional Animal Care and Use Committee of Central South University and Yale University.
Supplementary Figure 7. Pharmacokinetic profile of NHWD-870 using mouse and rat models.
(a,b) Plasma concentrations of NHWD-870 in healthy (a) mouse and (b) rat after intravenous (IV, 1.75 mg/kg for mouse and 1 mg/kg for rat) and oral (PO, 5 mg/kg) administration. Values shown on the right panels are mean ± SEM from 3 different animals. (c,d) Mean concentrations of NHWD-870 in the lungs (c) and tumors (d) of H526 xenograft model at the indicated hours after oral administration of 3 mg/kg NHWD-870 and BMS-98615821 on day 21. These mice were administrated the indicated drug daily for 21 days. Data are represented as mean ± SEM of 3 independent experiments. Source data are provided as a Source Data file. […]
9. In vivo pharmacokinetics study. Mouse and SD rat models were used to evaluate pharmacokinetic property of NHWD-870. NHWD-870 was administrated […]
Concentration of drugs in plasma, lung and tumor tissues were measured for the indicated time. […]

[2] = test system: A2780 tumors; test: Orthotopic OC model with CSF1 overexpressing A2780 cells, NHWD-870 treatment; type: in vivo, mouse; design: Tumor weight (Fig.6k) / Ascitic fluid (Fig.6l): unit not given here
Experimental: Fig. 6 CSF1/CSF1R signaling is critical for the tumor inhibitory effects of NHWD-870 and CSF1 induced ovarian cancer growth depends on macrophages. a Number of TAMs after treatment with the indicated concentration of CSF1 for 48 h. Data are presented as mean ± SEM from three independent experiments. b–d Schematics of the experiments (b). A2780 cells (pre-treated with DMSO or 100 nM NHWD-870 for 48 h) were seeded into the top chamber (transwell size: 0.4 μm), and TAMs (Mac, 40,000 cells per 24-well) in medium with PBS or 10 ng/ml CSF1 (c), or 50 ng/ml IgG or anti-CSF1R antibodies (d), were seeded into the bottom chamber. Shown are quantification of TAMs (c, d). Data are presented as mean ± SEM from three independent experiments. e Representative western blot analysis of A2780 cells stably transfected with CSF1 or empty vector (EV). Selected from three independent experiments. f Schematics of the animal experiments using an orthotopic mouse OC model, established by intraperitoneally injecting 1 × 10^6 (g–j) or 2 × 10^6 (k–m) human A2780 cells overexpressing CSF1 or control into female recipient nude mice. Mice were then treated with/without liposomal clodronate (LC) for 45 days (g–j) or treated with/without NHWD-870 (PO, QD, 3 mg/kg) for 37 days (k–m). g Increased mouse body weight was measured at the indicated time points (day 0-45 after LC treatment). h–j Net tumor weight (h), ascitic fluid volumes (i) tumor implantations in peritoneum, omentum and pevic cavity (j) were measured at day 45 from LC treatment. k–m Net tumor weight (k), ascitic fluid volumes (l) tumor implantations in peritoneum, omentum and pevic cavity (m) were measured at day 37 after NHWD-870 treatment. For g–m, data are presented as mean ± SEM from five different mice. p values were calculated using two-tailed, unpaired t tests in this figure. n.s, not significant; *p < 0.05; **p < 0.01; and ***p < 0.001. Source data are provided as a Source Data file.
as §1

[3] = male, SD, plasma, iv, 1 mg/kg, IV 1 mg/kg
[4] = CSF-1 overexpressing A2780 cells

With `Cc1nnn(C)c1-c1cnc2c3c4cnn(C)c4ccc3n([C@H](c3ccccc3)C3CCOCC3)c2c1` [NHWD-870] the AUCExtra ([1]; IV 1 mg/kg) was 2.21±0.73%, the AUMCExtra ([1]; IV 1 mg/kg) was 11.5±3.025% and the Cl ([1]; IV 1 mg/kg, 1 mg/kg) was 50 mL/min/kg. The T1/2 ([1]; IV 1 mg/kg, 1 mg/kg) was 0.9 h, the “Plasma Conc.” value ([1]; IV bolus, 5 min, individual animals, LLOQ 1.00 ng/mL) was 362 ng/mL and 355 ng/mL and the “Plasma Conc.” value ([1]; IV bolus, 0.25 h, individual animals, LLOQ 1.00 ng/mL) was 274 ng/mL and 247 ng/mL. The “Plasma Conc.” value ([1]; IV bolus, 0.5 h, individual animals, LLOQ 1.00 ng/mL) was 208 ng/mL and 167 ng/mL, the “Plasma Conc.” value ([1]; IV bolus, 1 h, individual animals, LLOQ 1.00 ng/mL) was 98.1 ng/mL and 112 ng/mL and the “Plasma Conc.” value ([1]; IV bolus, 2 h, individual animals, LLOQ 1.00 ng/mL) was 48.1 ng/mL and 40.3 ng/mL. For the same compound, the “Plasma Conc.” value ([1]; IV bolus, 4 h, individual animals, LLOQ 1.00 ng/mL) was 8.88 ng/mL and 8.14 ng/mL, the “Plasma Conc.” value ([1]; IV bolus, 8 h, individual animals, LLOQ 1.00 ng/mL) was “BQL” and the “Plasma Conc.” value ([1]; IV bolus, 24 h, individual animals, LLOQ 1.00 ng/mL) was “BQL”. The AUCExtra ([1]; PO 5 mg/kg) was 3.97±1.15%, the AUMCExtra ([1]; PO 5 mg/kg) was 11.8±2.615% and the Tlast ([1]; PO 5 mg/kg) was 8 h. The “Plasma Conc.” value ([1]; PO, 0.25 h, individual animals, LLOQ 1.00 ng/mL) was 18.8 ng/mL and 13.3 ng/mL, the “Plasma Conc.” value ([1]; PO, 0.5 h, individual animals, LLOQ 1.00 ng/mL) was 58.3 ng/mL and 33.9 ng/mL and the “Plasma Conc.” value ([1]; PO, 1 h, individual animals, LLOQ 1.00 ng/mL) was 117 ng/mL and 106 ng/mL and 54.6 ng/mL. For the same compound, the “Plasma Conc.” value ([1]; PO, 2 h, individual animals, LLOQ 1.00 ng/mL) was 111 ng/mL and 73.5 ng/mL, the “Plasma Conc.” value ([1]; PO, 4 h, individual animals, LLOQ 1.00 ng/mL) was 48.1 ng/mL and 45.9 ng/mL and the “Plasma Conc.” value ([1]; PO, 6 h, individual animals, LLOQ 1.00 ng/mL) was 20.2 ng/mL and 15.9 ng/mL and 50.5 ng/mL. The “Plasma Conc.” value ([1]; PO, 8 h, individual animals, LLOQ 1.00 ng/mL) was 6.96 ng/mL and 4.35 ng/mL and 9.56 ng/mL, the “Plasma Conc.” value ([1]; PO, 24 h, individual animals, LLOQ 1.00 ng/mL) was “BQL” and the AUC(0-inf) ([1]; male, SD, plasma, IV 1 mg/kg) was 331 ± 6.45 ng·h/mL. It also gave an AUC(0-t) ([1]; male, SD, plasma, IV 1 mg/kg) of 323 ± 5.55 ng·h/mL, a C0 ([1]; male, SD, plasma, IV 1 mg/kg) of 441 ± 17.9 ng/mL and an MRT inf ([1]; male, SD, plasma, IV 1 mg/kg) of 1.08 ± 0.021 h. It also gave an MRT last ([1]; male, SD, plasma, IV 1 mg/kg) of 0.98 ± 0.045 h, a Vd ([1]; male, SD, plasma, IV 1 mg/kg, read-out: Vdss) of 3.27 ± 0.0925 L/kg and an AUC(0-inf) ([1]; male, SD, plasma, PO 5 mg/kg) of 398 ± 9.15 ng·h/mL. It also gave an AUC(0-t) ([1]; male, SD, plasma, PO 5 mg/kg) of 382 ± 12.6 ng·h/mL, a Cmax ([1]; male, SD, plasma, PO 5 mg/kg) of 101 ± 11.8 ng/mL and an MRT inf ([1]; male, SD, plasma, PO 5 mg/kg) of 3.28 ± 0.33 h. It also gave an MRT last ([1]; male, SD, plasma, PO 5 mg/kg) of 3 ± 0.256 h, a Tmax ([1]; male, SD, plasma, PO 5 mg/kg) of 1.67 ± 0.288 h and a bioavailability ([1]; male, SD, plasma, PO 5 mg/kg, calculated using AUCinf with nominal dose) of 24%. For the same compound, the clearance [1, 3] was 50.4 ± 0.965 mL/min/kg, the half-life [1, 3] was 0.92 ± 0.0805 h and the concentration at 5 min ([1]; male, SD, plasma, iv, 1 mg/kg, IV bolus, 5 min, individual animals, LLOQ 1.00 ng/mL, read-out: Plasma Conc.) was 392 ng/mL. The concentration at 0.25 h ([1]; male, SD, plasma, iv, 1 mg/kg, IV bolus, 0.25 h, individual animals, LLOQ 1.00 ng/mL, read-out: Plasma Conc.) was 259 ng/mL, the concentration at 0.5 h ([1]; male, SD, plasma, iv, 1 mg/kg, IV bolus, 0.5 h, individual animals, LLOQ 1.00 ng/mL, read-out: Plasma Conc.) was 168 ng/mL and the concentration at 1 h ([1]; male, SD, plasma, iv, 1 mg/kg, IV bolus, 1 h, individual animals, LLOQ 1.00 ng/mL, read-out: Plasma Conc.) was 96.1 ng/mL. The concentration at 2 h ([1]; male, SD, plasma, iv, 1 mg/kg, IV bolus, 2 h, individual animals, LLOQ 1.00 ng/mL, read-out: Plasma Conc.) was 39 ng/mL, the concentration at 4 h ([1]; male, SD, plasma, iv, 1 mg/kg, IV bolus, 4 h, individual animals, LLOQ 1.00 ng/mL, read-out: Plasma Conc.) was 8.15 ng/mL and the concentration at 8 h ([1]; male, SD, plasma, iv, 1 mg/kg, IV bolus, 8 h, individual animals, LLOQ 1.00 ng/mL, read-out: Plasma Conc.) was 1.09 ng/mL. It also gave a half-life ([1]; male, SD, plasma, po, 5 mg/kg, PO 5 mg/kg) of 1.48 ± 0.155 h, a concentration at 0.25 h ([1]; male, SD, plasma, po, 5 mg/kg, PO, 0.25 h, individual animals, LLOQ 1.00 ng/mL, read-out: Plasma Conc.) of 18.2 ng/mL and a concentration at 0.5 h ([1]; male, SD, plasma, po, 5 mg/kg, PO, 0.5 h, individual animals, LLOQ 1.00 ng/mL, read-out: Plasma Conc.) of 56.8 ng/mL. For the same compound, the concentration at 2 h ([1]; male, SD, plasma, po, 5 mg/kg, PO, 2 h, individual animals, LLOQ 1.00 ng/mL, read-out: Plasma Conc.) was 110 ng/mL, the concentration at 4 h ([1]; male, SD, plasma, po, 5 mg/kg, PO, 4 h, individual animals, LLOQ 1.00 ng/mL, read-out: Plasma Conc.) was 45.5 ng/mL and the “Ascitic fluid (Fig.6l)” value [2, 4] was 2.5 and 3.8 and 4.1 and 3.5 and 2.1. For the same compound, the “Tumor nodules, Omentum (Fig.6m)” value [2, 4] was 8 and 13 and 10 and 16 and 12, the “Tumor nodules, Pelvic (Fig.6m)” value [2, 4] was 45 and 54 and 36 and 64 and 51 and the “Tumor weight (Fig.6k)” value [2, 4] was 375 and 345 and 367 and 276 and 305. The “tumor inhibitory effects on CSF1 overexpressing A2780 tumors” value ([2]; PO, QD, 3 mg/kg, 37 days) was “strongly mitigated the tumor inhibitory effects”.
